{"source": "patent US20070010671A1", "about": "“Novel quinazoline derivatives and methods of treatment related to the use thereof” (priority 2003, published 2007)", "data": [{"molecular_target": "MCH receptor (Homo sapiens, UniProt Q99705)", "test": "High throughput functional screening FLIPR/FDSS6000: inhibition of MCH-evoked intracellular Ca2+ changes", "format": "cell-based", "conditions": "class by percent of control at 10^-7 M or IC50", "procedure,_shortened": "(§1)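 Fluo4 fluorescence (Ex 488 nm, Em 530 nm) tracked MCH-evoked [Ca2+]i transients over 290 s by FLIPR or FDSS. Cells carried a constitutively active, non-endogenous receptor version. Compounds were added 3 min before a 50 nM MCH challenge.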", "values": [{"smiles": "CN(C)c1nc(N[C@H]2CC[C@@H](CNC(=S)Nc3c(Cl)cccc3Cl)CC2)nc2ccccc12", "note": "[compound 595]", "class": "2 (Class 2: The value of percent of control at 10^−7 M was from 40% to 60% or the value of IC50 was from 50 nM to 200 nM.)"}, {"smiles": "Cc1ccccc1NC(=O)NC[C@H]1CC[C@@H](Nc2nc(N(C)C)c3ccccc3n2)CC1", "note": "[compound 460, N-[(cis-4-{[4-(dimethylamino)quinazolin-2-yl]amino}cyclohexyl)methyl]-N′-(2-methylphenyl)urea]", "class": "1 (Class 1: The value of percent of control at 10^−7 M was less than 40% or the value of IC50 was less than 50 nM.)"}, {"smiles": "CN(C)c1nc(N[C@H]2CC[C@@H](CNC(=O)Nc3ccc(Cl)cc3[N+](=O)[O-])CC2)nc2ccccc12", "note": "[compound 547]", "class": "3 (Class 3: The value of percent of control at 10^−7 M was more than 60% or the value of IC50 was more than 200 nM.)"}, {"smiles": "COc1cccc(NC(=S)NC[C@H]2CC[C@@H](Nc3nc(N(C)C)c4ccccc4n3)CC2)c1", "note": "[compound 652]", "class": "3 (Class 3: The value of percent of control at 10^−7 M was more than 60% or the value of IC50 was more than 200 nM.)"}, {"smiles": "CC(NC(=O)NCC1CCC(Nc2nc(N(C)C)c3ccccc3n2)CC1)c1cccc2ccccc12", "note": "(stereo not drawn) [compound 467]", "class": "2 (Class 2: The value of percent of control at 10^−7 M was from 40% to 60% or the value of IC50 was from 50 nM to 200 nM.)"}, {"smiles": "Cc1noc(-c2ccccc2)c1NC(=O)NC[C@H]1CC[C@@H](Nc2nc(N(C)C)c3ccccc3n2)CC1", "note": "[compound 775]", "class": "1 (Class 1: The value of percent of control at 10^−7 M was less than 40% or the value of IC50 was less than 50 nM.)"}, {"smiles": "CN(C)c1nc(N[C@H]2CC[C@@H](CNC(=O)Nc3ccc(I)cc3)CC2)nc2ccccc12", "note": "[compound 555, N-[(cis-4-{[4-(dimethylamino)quinazolin-2-yl]amino}cyclohexyl)methyl]-N′-(4-iodophenyl)urea]", "class": "2 (Class 2: The value of percent of control at 10^−7 M was from 40% to 60% or the value of IC50 was from 50 nM to 200 nM.)"}, {"smiles": "CN(C)c1nc(N[C@H]2CC[C@@H](NC(=S)Nc3ccc(SC(F)(F)F)cc3)CC2)nc2ccccc12", "note": "[compound 232]", "class": "3 (Class 3: The value of percent of control at 10^−7 M was more than 60% or the value of IC50 was more than 200 nM.)"}, {"smiles": "CN(C)c1nc(N[C@H]2CC[C@@H](CNC(=O)NCc3ccccc3)CC2)nc2ccccc12", "note": "[compound 410]", "class": "3 (Class 3: The value of percent of control at 10^−7 M was more than 60% or the value of IC50 was more than 200 nM.)"}, {"smiles": "Cc1noc(C)c1NC(=O)N[C@H]1CC[C@@H](Nc2nc(N(C)C)c3ccccc3n2)CC1", "note": "[compound 353, N-(cis-4-{[4-(dimethylamino)quinazolin-2-yl]amino}cyclohexyl)-N′-(3,5-dimethylisoxazol-4-yl)urea]", "class": "2 (Class 2: The value of percent of control at 10^−7 M was from 40% to 60% or the value of IC50 was from 50 nM to 200 nM.)"}, {"smiles": "COc1ccc(NC(=O)NC[C@H]2CC[C@@H](Nc3nc(N(C)C)c4ccccc4n3)CC2)c(OC)c1", "note": "[compound 479]", "class": "3 (Class 3: The value of percent of control at 10^−7 M was more than 60% or the value of IC50 was more than 200 nM.)"}, {"smiles": "CC(C)c1ccc(NC(=S)NC[C@H]2CC[C@@H](Nc3nc(N(C)C)c4ccccc4n3)CC2)c(Br)c1", "note": "[compound 784]", "class": "3 (Class 3: The value of percent of control at 10^−7 M was more than 60% or the value of IC50 was more than 200 nM.)"}, {"smiles": "CN(C)c1nc(N[C@H]2CC[C@@H](CNC(=O)Nc3ccc(Cl)c(C(F)(F)F)c3)CC2)nc2ccccc12", "note": "[compound 548]", "class": "3 (Class 3: The value of percent of control at 10^−7 M was more than 60% or the value of IC50 was more than 200 nM.)"}, {"smiles": "CCOC(=O)c1cccc(NC(=O)NC[C@H]2CC[C@@H](Nc3nc(N(C)C)c4ccccc4n3)CC2)c1", "note": "[compound 430]", "class": "3 (Class 3: The value of percent of control at 10^−7 M was more than 60% or the value of IC50 was more than 200 nM.)"}, {"smiles": "CCCCOC(=O)c1ccccc1NC(=O)NC[C@H]1CC[C@@H](Nc2nc(N(C)C)c3ccccc3n2)CC1", "note": "[compound 750]", "class": "3 (Class 3: The value of percent of control at 10^−7 M was more than 60% or the value of IC50 was more than 200 nM.)"}, {"smiles": "CN(C)c1nc(N[C@H]2CC[C@@H](CNC(=S)Nc3ccc(Br)cc3Cl)CC2)nc2ccccc12", "note": "[compound 657]", "class": "3 (Class 3: The value of percent of control at 10^−7 M was more than 60% or the value of IC50 was more than 200 nM.)"}, {"smiles": "Cc1ccc(Cl)cc1NC(=S)N[C@H]1CC[C@@H](Nc2nc(N(C)C)c3ccccc3n2)CC1", "note": "[compound 238]", "class": "2 (Class 2: The value of percent of control at 10^−7 M was from 40% to 60% or the value of IC50 was from 50 nM to 200 nM.)"}, {"smiles": "Cc1ccc(NC(=S)NC[C@H]2CC[C@@H](Nc3nc(N(C)C)c4ccccc4n3)CC2)cc1C", "note": "[compound 790]", "class": "3 (Class 3: The value of percent of control at 10^−7 M was more than 60% or the value of IC50 was more than 200 nM.)"}, {"smiles": "Cc1cc(Br)ccc1NC(=O)NC[C@H]1CC[C@@H](Nc2nc(N(C)C)c3ccccc3n2)CC1", "note": "[compound 754]", "class": "2 (Class 2: The value of percent of control at 10^−7 M was from 40% to 60% or the value of IC50 was from 50 nM to 200 nM.)"}, {"smiles": "CN(C)c1nc(N[C@H]2CC[C@@H](NC(=S)Nc3cccc4nsnc34)CC2)nc2ccccc12", "note": "[compound 398]", "class": "3 (Class 3: The value of percent of control at 10^−7 M was more than 60% or the value of IC50 was more than 200 nM.)"}, {"smiles": "CN(C)c1nc(N[C@H]2CC[C@@H](CNC(=S)NC3CCCCCCCCCCC3)CC2)nc2ccccc12", "note": "[compound 709, N-cyclododecyl-N′-[(cis-4-{[4-(dimethylamino)quinazolin-2-yl]amino}cyclohexyl)methyl]thiourea]", "class": "2 (Class 2: The value of percent of control at 10^−7 M was from 40% to 60% or the value of IC50 was from 50 nM to 200 nM.)"}, {"smiles": "CN(C)c1nc(N[C@H]2CC[C@@H](CNC(=S)NCc3ccc(F)cc3)CC2)nc2ccccc12", "note": "[compound 698]", "class": "3 (Class 3: The value of percent of control at 10^−7 M was more than 60% or the value of IC50 was more than 200 nM.)"}, {"smiles": "CCc1cccc(C)c1NC(=O)NC[C@H]1CC[C@@H](Nc2nc(N(C)C)c3ccccc3n2)CC1", "note": "[compound 434, N-[(cis-4-{[4-(dimethylamino)quinazolin-2-yl]amino}cyclohexyl)methyl]-N′-(2-ethyl-6-methylphenyl)urea]", "class": "1 (Class 1: The value of percent of control at 10^−7 M was less than 40% or the value of IC50 was less than 50 nM.)"}, {"smiles": "CN(C)c1nc(N[C@H]2CC[C@@H](NC(=S)NCc3cccc4ccccc34)CC2)nc2ccccc12", "note": "[compound 289, N-(cis-4-{[4-(dimethylamino)quinazolin-2-yl]amino}cyclohexyl)-N′-(1-naphthylmethyl)thiourea]", "class": "1 (Class 1: The value of percent of control at 10^−7 M was less than 40% or the value of IC50 was less than 50 nM.)"}, {"smiles": "CN(C)c1nc(N[C@H]2CC[C@@H](CNC(=O)Nc3ccc(SC(F)(F)F)cc3)CC2)nc2ccccc12", "note": "[compound 537]", "class": "3 (Class 3: The value of percent of control at 10^−7 M was more than 60% or the value of IC50 was more than 200 nM.)"}]}, {"molecular_target": "MCH receptor (Homo sapiens, UniProt Q99705)", "test": "High throughput functional screening FLIPR/FDSS6000: inhibition of MCH-evoked intracellular Ca2+ changes", "format": "cell-based", "conditions": "class by percent of control at 10^-7 M or by IC50; read-out: class", "procedure,_shortened": "as §1", "units": {"IC50": "nM"}, "values": [{"smiles": "CN(C)c1nc(N[C@H]2CC[C@@H](NC(=O)NC(c3ccccc3)c3ccccc3)CC2)nc2ccccc12", "note": "[compound 844, N-(cis-4-{[4-(dimethylamino)quinazolin-2-yl]amino}cyclohexyl)-N′-(diphenylmethyl)urea]", "IC50": "< 50"}, {"smiles": "CN(C)c1nc(N[C@H]2CC[C@@H](NC(=O)NCc3ccccc3Cl)CC2)nc2ccccc12", "note": "[compound 91, N-(2-chlorobenzyl)-N′-(cis-4-{[4-(dimethylamino)quinazolin-2-yl]amino}cyclohexyl)urea]", "IC50": "< 50"}, {"smiles": "CCOC(=O)NC[C@H]1CC[C@@H](Nc2nc(N(C)C)c3ccccc3n2)CC1", "note": "[compound 874]", "IC50": "> 200"}, {"smiles": "CN(C)c1nc(N[C@H]2CC[C@@H](NC(=O)NC3c4ccccc4-c4ccccc43)CC2)nc2ccccc12", "note": "[compound 840, N-(cis-4-{[4-(dimethylamino)quinazolin-2-yl]amino}cyclohexyl)-N′-9H-fluoren-9-ylurea]", "IC50": "> 200"}, {"smiles": "CN(C)c1nc(N[C@H]2CC[C@@H](NC(=O)Nc3ccccc3[N+](=O)[O-])CC2)nc2ccccc12", "note": "[compound 113, N-(cis-4-{[4-(dimethylamino)quinazolin-2-yl]amino}cyclohexyl)-N′-(2-nitrophenyl)urea]", "IC50": "< 50"}, {"smiles": "CCCCCCNC(=S)N[C@H]1CC[C@@H](Nc2nc(N(C)C)c3ccccc3n2)CC1", "note": "[compound 176, N-(cis-4-{[4-(dimethylamino)quinazolin-2-yl]amino}cyclohexyl)-N′-hexylthiourea]", "IC50": "50 to 200"}]}, {"molecular_target": "MCH receptor (Homo sapiens, UniProt Q99705)", "test": "High throughput functional screening FLIPR/FDSS6000: inhibition of MCH-evoked intracellular Ca2+ changes", "format": "cell-based", "conditions": "class by percent of control at 10^−7 M or by IC50; read-out: class", "procedure,_shortened": "as §1", "units": {"IC50": "nM"}, "values": [{"smiles": "CN(C)c1nc(N[C@H]2CC[C@@H](C(=O)NCc3cccc(OC(F)(F)F)c3)CC2)nc2ccccc12", "note": "[Example 1186, cis-4-{[4-(dimethylamino)quinazolin-2-yl)amino}-N-[3-(trifluoromethoxy)benzyl]cyclohexanecarboxamide]", "IC50": "< 50"}, {"smiles": "COc1ccc(CNC(=O)[C@H]2CC[C@@H](Nc3nc(N(C)C)c4cc(F)c(F)cc4n3)CC2)cc1", "note": "[Example 994, cis-4-{[4-(dimethylamino)-6,7-difluoroquinazolin-2-yl]amino}-N-(4-methoxybenzyl)cyclohexanecarboxamide]", "IC50": "< 50"}, {"smiles": "COc1cccc(C(O)C(=O)N[C@H]2CC[C@@H](Nc3nc(N(C)C)c4ccccc4n3)CC2)c1", "note": "(relative stereo) [Example 1113, N-(cis-4-{[4-(dimethylamino)quinazolin-2-yl]amino}cyclohexyl)-2-hydroxy-2-(3-methoxyphenyl)acetamide]", "IC50": "< 50"}, {"smiles": "CN(C)c1nc(N[C@H]2CC[C@@H](C(=O)NCc3cccc(C(F)(F)F)c3)CC2)nc2cc(F)c(F)cc12", "note": "[Example 998, cis-4-{[4-(dimethylamino)-6,7-difluoroquinazolin-2-yl]amino}-N-[3-(trifluoromethyl)benzyl]cyclohexanecarboxamide]", "IC50": "< 50"}, {"smiles": "COc1ccc(C(O)C(=O)N[C@H]2CC[C@@H](Nc3nc(N(C)C)c4ccccc4n3)CC2)cc1", "note": "(relative stereo) [Example 1105, N-(cis-4-{[4-(dimethylamino)quinazolin-2-yl]amino}cyclohexyl)-2-hydroxy-2-(4-methoxyphenyl)acetamide]", "IC50": "< 50"}]}]}
